# Source: ChEMBL document CHEMBL2331278, “Synthesis, pharmacological evaluation and QSAR modeling of mono-substituted 4-phenylpiperidines and 4-phenylpiperazines” (Eur J Med Chem, 2013)
# Tests used:
# D(2) dopamine receptor = D(2) dopamine receptor (Homo sapiens, UniProt P14416); assay: Displacement of [3H]7-OH-DPAT from human D2S receptor high affinity site expressed in HEK293 cells; type: cell-based
# Rattus norvegicus [1] = assay: Reduction in DOPAC level in Sprague-Dawley rat striatum at 100 umol/kg, sc measured after 1 hr relative to control; type: functional
# Rattus norvegicus [2] = assay: Reduction in DOPAC level in Sprague-Dawley rat striatum at 33 umol/kg, sc measured after 1 hr relative to control; type: functional; parameters: scale not given: the % may be the effect or the level left
# [3] = target: T1, Amine oxidase [flavin-containing] A (Rattus norvegicus, UniProt P21396); assay: Displacement of [3H]Ro 41-1049 from rat MAO-A receptor expressed in HEK293 cells; type: cell-based
# T1 sequence (P21396 whole entry): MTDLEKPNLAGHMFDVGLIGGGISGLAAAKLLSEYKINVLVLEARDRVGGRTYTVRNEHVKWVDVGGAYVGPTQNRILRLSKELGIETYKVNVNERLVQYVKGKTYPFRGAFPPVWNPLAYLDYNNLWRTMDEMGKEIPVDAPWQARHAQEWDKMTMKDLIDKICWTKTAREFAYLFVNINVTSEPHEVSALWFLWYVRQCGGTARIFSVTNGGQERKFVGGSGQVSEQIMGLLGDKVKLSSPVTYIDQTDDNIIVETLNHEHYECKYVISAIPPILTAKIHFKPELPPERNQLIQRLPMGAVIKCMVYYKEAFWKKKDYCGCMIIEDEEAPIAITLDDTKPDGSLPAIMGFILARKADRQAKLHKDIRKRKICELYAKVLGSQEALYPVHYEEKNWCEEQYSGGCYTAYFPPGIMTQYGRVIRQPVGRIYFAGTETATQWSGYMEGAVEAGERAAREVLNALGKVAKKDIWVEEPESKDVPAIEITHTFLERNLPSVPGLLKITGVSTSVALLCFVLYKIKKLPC
# Rattus norvegicus [4] = assay: Reduction in DOPAC level in Sprague-Dawley rat striatum at 50 umol/kg, sc measured after 1 hr relative to control; type: functional; parameters: scale not given: the % may be the effect or the level left
# D(2) dopamine receptor, sequence (P14416 whole entry): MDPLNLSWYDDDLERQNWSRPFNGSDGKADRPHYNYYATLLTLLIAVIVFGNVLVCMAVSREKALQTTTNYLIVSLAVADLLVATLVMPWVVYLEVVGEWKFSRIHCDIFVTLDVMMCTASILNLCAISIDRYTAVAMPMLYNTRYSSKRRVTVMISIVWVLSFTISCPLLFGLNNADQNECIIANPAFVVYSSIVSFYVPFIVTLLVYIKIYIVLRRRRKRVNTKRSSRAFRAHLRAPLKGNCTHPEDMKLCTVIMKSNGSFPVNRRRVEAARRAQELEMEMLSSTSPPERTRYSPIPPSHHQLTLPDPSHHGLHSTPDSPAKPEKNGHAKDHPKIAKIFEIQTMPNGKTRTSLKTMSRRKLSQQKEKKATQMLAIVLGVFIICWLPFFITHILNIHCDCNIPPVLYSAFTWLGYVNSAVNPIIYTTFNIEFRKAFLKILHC
Structure (SMILES),Ki (D(2) dopamine receptor) [nM],DOPAC level (% of control) (Rattus norvegicus [1]) [%],further results
CCCN1CCN(c2ccccc2)CC1,470,181,–
CCCN1CCC(c2ccccc2)CC1,170,131,–
CCCN1CCC(c2ccc(Cl)cc2)CC1,900,–,–
CCCN1CCC(c2ccc(OC)cc2)CC1,23000,–,–
CCCN1CCC(c2cccc(S(=O)(=O)C(C)C)c2)CC1,–,205,–
CCCN1CCC(c2cccc(C)c2)CC1,–,115,–
CCCN1CCC(c2cccc(S(=O)(=O)C(F)(F)F)c2)CC1,–,258,–
CCCN1CCC(c2ccccc2OC)CC1,12,–,Activity (Rattus norvegicus [2]): 277%; Ki ([3]; read-out: Ki): 2.4 µM
CCCN1CCC(c2ccccc2C(F)(F)F)CC1,–,254,–
CCCN1CCN(c2ccccc2S(C)(=O)=O)CC1,580,283,Ki ([3]; read-out: Ki): > 583 µM; Ki ([3]; read-out: pKi (converted)): > 631 µM
CCCN1CCC(c2ccccc2OS(=O)(=O)C(F)(F)F)CC1,–,270,–
CCCN1CCC(c2cccc(OC)c2)CC1,1500,140,Ki ([3]; read-out: Ki): 18 µM
CCCN1CCC(c2cccc(C(F)(F)F)c2)CC1,180,260,Ki ([3]; read-out: Ki): 128 µM
CCCN1CCC(c2cccc(C#N)c2)CC1,–,275,–
CCCN1CCN(c2cccc(OS(=O)(=O)C(F)(F)F)c2)CC1,–,285,–
CCCN1CCC(c2cccc(OS(=O)(=O)C(F)(F)F)c2)CC1,–,241,–
CCCN1CCC(c2cccc(S(=O)(=O)C3CCCC3)c2)CC1,3800,170,Ki ([3]; read-out: Ki): > 583 µM; Ki ([3]; read-out: pKi (converted)): > 631 µM
CCCN1CCN(c2cccc(S(=O)(=O)c3ccccc3)c2)CC1,–,152,–

Structure (SMILES),Ki (D(2) dopamine receptor) [nM],DOPAC level (% of control) (Rattus norvegicus [1]) [%],further results
CCCN1CCN(c2cccc(C(C)=O)c2)CC1,–,221,–
CCCN1CCC(c2cccc(OC(C)C)c2)CC1,–,112,–
CCCN1CCC(c2cccc(N3CCOCC3)c2)CC1,–,105,–
CCCN1CCN(c2cccc(OS(C)(=O)=O)c2)CC1,–,–,Activity (Rattus norvegicus [4]): 254%
CCCN1CCC(c2cccc(OC(C)(C)C)c2)CC1,–,196,–
CCCN1CCN(c2cccc(Cl)c2)CC1,–,250,–
CCCN1CCN(c2ccccc2C#N)CC1,–,–,Activity (Rattus norvegicus [2]): 313%
CCCN1CCN(c2cccc(O)c2)CC1,–,–,Ki ([3]; read-out: Ki): > 583 µM; Ki ([3]; read-out: pKi (converted)): > 631 µM
CCCN1CCN(c2ccc(OC)cc2)CC1,6400,–,–
CCCN1CCN(c2cccc(OC)c2)CC1,300,255,Ki ([3]; read-out: Ki): 16 µM
CCCN1CCN(c2ccccc2C)CC1,–,327,–
CCCN1CCN(c2ccccc2Cl)CC1,–,368,–
CCCN1CCN(c2cccc(C#N)c2)CC1,270,314,Ki ([3]; read-out: Ki): > 583 µM; Ki ([3]; read-out: pKi (converted)): > 631 µM
CCCN1CCN(c2ccccc2O)CC1,–,270,–
CCCN1CCN(c2cccc(C(F)(F)F)c2)CC1,–,–,Activity (Rattus norvegicus [4]): 315%
CCCN1CCN(c2cccc(S(C)(=O)=O)c2)CC1,–,–,Ki ([3]; read-out: Ki): 126 µM
CCCN1CCN(c2ccccc2OC)CC1,22,370,Ki ([3]; read-out: Ki): > 583 µM; Ki ([3]; read-out: pKi (converted)): > 631 µM
